Results reported in ChEMBL document CHEMBL1148095, “6-Hydroxymanzamine A and 3,4-dihydromanzamine A, new alkaloids from the Okinawan marine sponge Amphimedon Sp” (J Nat Prod, 1994).
≈ marks a conversion by molar mass, not a printed value.

Tests used:
[1] = tested on: Micrococcus luteus; assay: Antibacterial activity against Sarcina lutea; type: functional
[2] = tested on: L1210; assay: Cytotoxicity against mouse L1210 cells; type: functional, cell-based
[3] = tested on: KB; assay: Cytotoxicity against human KB cells; type: functional, cell-based

| MIC [1] [µg/mL] | Compound | IC50 [2] [µg/mL] | IC50 [3] [µg/mL] |
| --- | --- | --- | --- |
| 1.25 (≈ 2.21 µM) | Oc1ccc2[nH]c3c(C4=C[C@@]5(O)CC/C=C\CCCCN6CCC4[C@]4(C[C@@H]7/C=C\CCCCN7[C@H]45)C6)nccc3c2c1 (stereo partly specified) | 1.5 (≈ 2.66 µM) | 2.5 (≈ 4.43 µM) |
| 4 (≈ 7.26 µM) | O[C@]12C=C(C3=NCCc4c3[nH]c3ccccc43)[C@@H]3CCN(CCCC/C=C\CC1)C[C@@]31C[C@@H]3/C=C\CCCCN3[C@H]12 [3,4-DIHYDROMANZAMINE A] | 0.48 (≈ 0.871 µM) | 0.61 (≈ 1.11 µM) |
